In patent publication US10800776B2, “Fluorine-containing triazolopyridine, and manufacturing method, pharmaceutical composition, and application thereof” (SHANGHAI INSTITUTE OF MATERIA MEDICA, CHINESE ACADEMY OF …, priority 2016, dated 2020):
pEC50, pIC50: −log10 of the molar value.

Legend:
[1] = system: ICR mice; test: Mouse swimming depression test; assay type: in vivo; conditions: for non-movement time (%) Mean ± SEM: positive control, 10 mg/kg, intraperitoneal, 0.5 hours before test
Protocol: Experiment objectives: to observe the effect of the test compound on the depressive status of mice
Experimental animals: ICR mice, 20-28 g, both male and female
Experimental equipment: plexiglass tube: cylindrical, 25 cm high, 15 cm inner diameter
Sample treatment: The test compounds were ground with 1% CMC (sodium carboxymethyl cellulose) to prepare a homogeneous solution. In vivo dose was 5 mg/kg, 10 mg/kg and 20 mg/kg, the compound was orally administrated at 0.1 ml/10 g volume/body weight. Positive control drugs (amitriptyline and fluoxetine) were dissolved with 0.9% saline, in vivo dose was 10 mg/kg, intraperitoneal injected at 0.1 ml/10 g volume/body weight. (Note: mice were given the compound after fasted for 8 hours without water-fasted.)
Experimental principle: The mouse is placed in a limited space which can not escape to swim, thus inducing animals to non-movement state which reflects the animal's desperate behavior.
Experimental Methods: mice were grouped randomly, 15 minutes swimming depression was modeled at the first day, and equivalent mice were selected. The second day of the test, 1 hour after the animals were orally administered the compound (0.5 hours after intraperitoneal injection) and then the animals were put in water to record the non-movement time in the later 4 min of 6 min.

[2] = molecular target: hERG potassium channel (Homo sapiens (Human), UniProt Q12809); test: hERG potassium channel toxicity assay (hERG patch clamp); assay type: cell-based; conditions: for pIC50: hERG patch clamp; for inhibition at 40 µM: at maximum concentration 40 μM
Protocol: Experimental method: hERG patch clamp detection method
Experimental procedure: Compound preparation: the stock solution of a compound was diluted with extracellular fluid, 2 μL of the compound stock solution was added to 998 μL extracellular fluid, and then serially diluted 5 times in an extracellular fluid containing 0.2% DMSO to obtain the final concentration to be tested.

[3] = molecular target: mGluR2 (Homo sapiens (Human), UniProt Q14416); test: In vitro activity test for mGluR2 (HDB Fluo-8 calcium fluorescence, HEK/mGluR2 cell line); assay type: cell-based
Text: Experimental materials: HEK/mGluR2 cell line (human […] transfected HEK cell line), DMEM (FBS) medium, positive control LY487379 (purchased from sigma; CAS: to 352317-17-1)
Experimental instrument: FLIPR Tetra real-time fluorescence imaging analysis system
Experimental method: HDB Fluo-8 calcium fluorescence detection method
Experimental principle: HDB Fluo-8 calcium ion fluorescence detection method is a fast, simple and reliable fluorescence detection method of intracellular calcium concentration changes. The Fluo 8-AM fluorescent dye is an acetyl methyl ester derivative of Fluo 8 which can easily penetrate into the cell membrane by culture. The fluorescent dye in the cell will be hydrolyzed by intracellular esterase, the resulting Fluo 8 as a polar molecule, cannot easily pass through the lipid bimolecular membrane, and will be retained in the cell, and combine with calcium (Ca^2+) to produce fluoresces.
Cells expressing GPCR receptor protein (mGluR2) were first calibrated with a calcium ion sensitive fluorescent probe and then stimulated with the compound. After stimulation, the receptor activates the calcium ion mobilization, and the fluorescent probe captures the calcium ion to induce the fluorescence signal. The signal can be read by a fluoroscopy plate. The fluorescent plate reader contains a sample addition for compound addition, thus enabling the change of the fluorescence value of the compound be read in real time.

[4] = system: C57BL/6 mice; test: Mouse open field experiment; assay type: in vivo
Protocol: Experiment objectives: to observe the anti-anxiety effect of the test compound on the mice by open field experiment.
Experimental animals: male C57BL/6 mice, 10 weeks old, purchased from Beijing Huafukang Biotechnology Co., Ltd.
Animal rearing: The temperature in the animal room was maintained at 20-25° C., the humidity was maintained at 40-70%, and the photoperiod was 12 hours light and 12 hours dark. During feeding, the mice were housed in standard mouse cages, with colored labels on each cage clearly indicating the item number, and the basic information such as the responsible person, group, animal number and animal gender. All animals were given free access to pure water and standard certified rodent feed. Before the start of the experiment, the experimental animals were adapted to the feeding environment for at least one week.
The compound to be tested, intraperitoneally administered, 30 mg/kg.
Experimental principle: Based on the instincts of rodents tending to avoid light and fear of exploring open fields. When the experimental animals were first placed in the open field, the central area was a potential threat to the animals, while the peripheral area was relatively safe, and rats and mice were more likely to move along the perimeter of the field. Therefore, if the animal is of high anxiety level, it tends to stay in the peripheral area. Conversely, the number and time of exploration in the central area will increase.
Experimental grouping and administration: Experimental animals were randomly divided into 5 groups as follows:
During the 30-minute test period, the total distance traveled by the experimental animals, the central area dwell time, and the percentage of the central area travel distance will be detected and recorded.

[5] = human, hERG, read-out: Inhibition rate (%)
[6] = 30 mg/kg i.p., 1 hour before, 30-minute test

Chain of mGluR2 (Q14416 19-872): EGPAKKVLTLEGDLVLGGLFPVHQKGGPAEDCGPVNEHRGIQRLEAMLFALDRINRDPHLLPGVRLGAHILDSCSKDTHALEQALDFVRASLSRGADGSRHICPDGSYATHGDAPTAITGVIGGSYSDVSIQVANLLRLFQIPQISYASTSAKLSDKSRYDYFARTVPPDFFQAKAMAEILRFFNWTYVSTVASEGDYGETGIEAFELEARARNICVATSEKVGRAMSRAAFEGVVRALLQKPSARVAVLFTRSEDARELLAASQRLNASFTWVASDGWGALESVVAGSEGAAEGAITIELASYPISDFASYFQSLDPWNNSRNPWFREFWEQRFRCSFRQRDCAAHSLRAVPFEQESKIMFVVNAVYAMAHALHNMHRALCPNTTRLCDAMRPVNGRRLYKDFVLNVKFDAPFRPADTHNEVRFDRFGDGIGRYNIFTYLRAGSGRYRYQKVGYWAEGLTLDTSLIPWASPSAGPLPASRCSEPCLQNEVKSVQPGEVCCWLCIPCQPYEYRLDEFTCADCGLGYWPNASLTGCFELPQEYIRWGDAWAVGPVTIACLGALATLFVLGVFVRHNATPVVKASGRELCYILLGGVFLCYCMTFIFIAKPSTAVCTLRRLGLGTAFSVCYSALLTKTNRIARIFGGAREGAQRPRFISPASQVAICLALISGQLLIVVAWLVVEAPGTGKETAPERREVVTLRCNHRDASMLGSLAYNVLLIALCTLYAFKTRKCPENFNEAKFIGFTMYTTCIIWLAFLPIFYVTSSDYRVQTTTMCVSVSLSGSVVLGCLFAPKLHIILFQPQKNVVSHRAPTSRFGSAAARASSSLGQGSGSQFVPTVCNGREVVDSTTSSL
Chain of hERG potassium channel (Q12809 whole entry): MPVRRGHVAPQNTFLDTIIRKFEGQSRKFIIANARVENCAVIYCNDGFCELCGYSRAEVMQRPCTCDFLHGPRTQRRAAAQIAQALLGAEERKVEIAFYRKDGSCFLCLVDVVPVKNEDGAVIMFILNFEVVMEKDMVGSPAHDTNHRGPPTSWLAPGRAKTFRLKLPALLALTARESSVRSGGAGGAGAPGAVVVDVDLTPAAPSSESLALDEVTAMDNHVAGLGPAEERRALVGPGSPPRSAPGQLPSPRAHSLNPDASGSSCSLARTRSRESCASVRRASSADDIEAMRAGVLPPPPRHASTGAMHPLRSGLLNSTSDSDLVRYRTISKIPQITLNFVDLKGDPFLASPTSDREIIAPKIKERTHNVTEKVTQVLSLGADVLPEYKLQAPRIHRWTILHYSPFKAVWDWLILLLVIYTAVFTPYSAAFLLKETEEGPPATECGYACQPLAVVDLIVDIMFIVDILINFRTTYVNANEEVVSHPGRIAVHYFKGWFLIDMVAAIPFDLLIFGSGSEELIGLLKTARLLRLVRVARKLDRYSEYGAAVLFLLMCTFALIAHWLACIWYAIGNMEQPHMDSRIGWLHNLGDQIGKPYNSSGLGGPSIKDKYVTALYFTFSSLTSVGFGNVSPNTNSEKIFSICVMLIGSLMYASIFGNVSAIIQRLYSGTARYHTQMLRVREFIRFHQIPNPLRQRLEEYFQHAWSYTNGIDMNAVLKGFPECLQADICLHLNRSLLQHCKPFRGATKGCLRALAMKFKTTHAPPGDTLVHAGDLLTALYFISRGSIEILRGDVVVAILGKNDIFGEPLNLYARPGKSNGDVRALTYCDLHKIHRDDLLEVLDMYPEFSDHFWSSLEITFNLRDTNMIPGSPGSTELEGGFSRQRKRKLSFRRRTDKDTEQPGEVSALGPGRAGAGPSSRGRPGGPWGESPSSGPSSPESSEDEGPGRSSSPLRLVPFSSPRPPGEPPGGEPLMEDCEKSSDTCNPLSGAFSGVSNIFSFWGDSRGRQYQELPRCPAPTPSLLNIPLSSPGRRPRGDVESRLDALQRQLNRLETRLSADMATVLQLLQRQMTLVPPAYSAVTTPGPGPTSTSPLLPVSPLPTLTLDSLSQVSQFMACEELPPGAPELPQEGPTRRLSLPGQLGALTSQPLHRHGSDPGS

Row | Compound | pIC50 [2] | inhibition at 40 µM [2, 5] | pEC50 [3] | other results
1 | CN(C)CCC=C1c2ccccc2CCc2ccccc21 [Amitriptyline, reference compound] |  |  |  | "no movement time" of swimming in mice (in words) ([1]; mouse, in vivo): significantly improved; non-movement time (%) Mean ± SEM [1]: 5.32 ± 2.08 %
2 | COc1cc(N)c(Cl)cc1C(=O)NC1CCN(CCCOc2ccc(F)cc2)CC1OC (stereo not drawn) [Cisapride, reference compound] |  |  |  | inhibition at 3 µM ([2]; human, hERG, positive compound, maximum test concentration 3 μM, read-out: Inhibition rate (%)): 96.6%
3 | Cc1cccc(-c2ccn3c(CC4CC4(F)F)nnc3c2)c1 (stereo not drawn) [Compound 10, 3-((2,2-difluorocyclopropyl)methyl)-7-(m-tolyl)-[1,2,4]triazole [4,3-a]pyridine] | < 4.40 | 38.1% | 6.84 | 
4 | Fc1cccc(-c2ccn3c(CC4CC4(F)F)nnc3c2)c1 (stereo not drawn) [Compound 11, 3-((2,2-Difluorocyclopropyl)methyl)-7-(3-fluorophenyl)-[1,2,4]triazole [4,3-a]pyridine] | < 4.40 | 45.9% | 6.15 | 
5 | Fc1ccc(-c2ccn3c(CC4CC4(F)F)nnc3c2)cc1 (stereo not drawn) [Compound 13, 3-((2,2-difluorocyclopropyl)methyl)-7-(4-fluorophenyl)-[1,2,4]triazole [4,3-a]pyridine] | 4.50 | 52.8% | 6.42 | 
6 | CC(C)(O)c1ccc(-c2ccn3c(CC4CC4(F)F)nnc3c2)cc1 (stereo not drawn) [Compound 21, 2-(4-(3-((2,2-difluorocyclopropyl)methyl)-[1,2,4]triazole[4,3-a]pyridin-7-yl)phenyl)propan-2-ol] | 4.50 | 52.8% | 6.65 | 
7 | COc1ccc(-c2ccn3c(CC4CC4(F)F)nnc3c2)cc1F (stereo not drawn) [Compound 23, 3-((2,2-difluorocyclopropyl)methyl)-7-(3-fluoro-4-methoxyphenyl)-[1,2,4] triazole[4,3-a]pyridine] | < 4.40 | 46% | 6.07 | 
8 | Cc1cc(F)ccc1-c1ccn2c(CC3CC3(F)F)nnc2c1 (stereo not drawn) [Compound 26, 3-((2,2-difluorocyclopropyl)methyl)-7-(4-fluoro-2-methylphenyl)-[1,2,4] triazole[4,3-a]pyridine] | < 4.40 | 49.4% | 6.11 | 
9 | Cc1cc(-c2ccn3c(CC4CC4(F)F)nnc3c2)ccc1F (stereo not drawn) [Compound 27, 3-((2,2-difluorocyclopropyl)methyl)-7-(4-fluoro-3-methylphenyl)-[1,2,4] triazole[4,3-a]pyridine] | < 4.40 | 49.9% | 6.06 | 
10 | COC(=O)c1ccc(-c2ccn3c(CC4CC4(F)F)nnc3c2)c(F)c1 (stereo not drawn) [Compound 29, Methyl 4-(3-((2,2-difluorocyclopropyl)methyl)-[1,2,4]triazolo[4,3-a]pyridin-7-yl)-3-fluorobenzonate] | 4.76 | 62.4% | 6.27 | 
11 | FC1(F)CC1Cc1nnc2cc(-c3ccc4c(c3)CCO4)ccn12 (stereo not drawn) [Compound 31, 3-((2,2-difluorocyclopropyl)methyl)-7-(2,3-benzodihydrofuran-5-yl)-[1,2,4]triazole[4,3-a]pyridine] | < 4.40 | 48.1% | 6.43 | 
12 | FC1(F)CC1Cc1nnc2cc(-c3cccc4c3OCC4)ccn12 (stereo not drawn) [Compound 32, 3-((2,2-difluorocyclopropyl)methyl)-7-(2,3-benzodihydrofuran-7-yl)-[1,2,4]triazole[4,3-a]pyridine] | < 4.40 | 51% | 6.08 | 
13 | FC1(F)CC1Cc1nnc2cc(-c3cccc4cccnc34)ccn12 (stereo not drawn) [Compound 34, 8-(3-((2,2-difluorocyclopropyl)methyl)-[1,2,4]triazole[4,3-a]pyridin-7-yl)quinoline] | < 4.40 | 36% | 6.21 | 
14 | FC1(F)CC1Cc1nnc2cc(-c3ccc4c(c3)OCO4)ccn12 (stereo not drawn) [Compound 35, 7-(Benzo[d][1,3]dioxol-5-yl)-3-((2,2-difluorocyclopropyl)methyl)-[1,2,4]triazole [4,3-a]pyridine] | < 4.40 | 40% | 6.97 | Central area dwell time (s) Mean ± SEM [4, 6]: 102.6 ± 20.8 s; Central area traveling distance percentage (%) Mean ± SEM [4, 6]: 15.41 ± 1.99%; Total moving distance (cm) Mean ± SEM [4, 6]: 3491.2 ± 650.6 cm
15 | Cc1cccc(-c2ccn3c(CC4CC4(F)F)nnc3c2Cl)c1 (stereo not drawn) [Compound 36, 8-chloro-3-((2,2-difluorocyclopropyl)methyl)-7-(m-tolyl)-[1,2,4] triazole[4,3-a]pyridine] | < 4.40 | 48.9% | 6.89 | 
16 | Fc1cccc(-c2ccn3c(CC4CC4(F)F)nnc3c2Cl)c1 (stereo not drawn) [Compound 37, 8-chloro-3-((2,2-difluorocyclopropyl)methyl)-7-(3-fluorophenyl)-[1,2,4] triazole[4,3-a]pyridine] | 4.82 | 57% | 6.72 | 
17 | Cc1cc(F)ccc1-c1ccn2c(CC3CC3(F)F)nnc2c1Cl (stereo not drawn) [Compound 41, 8-chloro-3-((2,2-difluorocyclopropyl)methyl)-7-(4-fluoro-2-methylphenyl)-[1,2,4]triazole[4,3-a]pyridine] | 4.95 | 80.1% | 6.07 | 
18 | COc1ccc(-c2ccn3c(CC4CC4(F)F)nnc3c2Cl)cc1F (stereo not drawn) [Compound 44, 8-chloro-3-((2,2-difluorocyclopropyl)methyl)-7-(3-fluoro-4-methoxyphenyl)-[1,2,4]triazole[4,3-a]pyridine] | 4.79 | 64.5% | 6.93 | 
19 | COC(=O)c1ccc(-c2ccn3c(CC4CC4(F)F)nnc3c2Cl)c(Cl)c1 (stereo not drawn) [Compound 46, Methyl 3-Chloro-4-(8-chloro-3-((2,2-difluorocyclopropyl)methyl)-[1,2,4]triazole[4,3-a]pyridine-7-yl)benzoate] | 4.97 | 82.5% | 6.64 | 
20 | FC1(F)CC1Cc1nnc2c(Cl)c(-c3ccc4c(c3)CCO4)ccn12 (stereo not drawn) [Compound 47, 8-chloro-3-((2,2-difluorocyclopropyl)methyl)-7-(2,3-benzodihydrofuran-5-yl)-[1,2,4]triazole[4,3-a]pyridine] | 5.31 | 96.4% | 6.67 | 
21 | CN1C(=O)CN=C(c2ccccc2)c2cc(Cl)ccc21 [Diazepam, reference compound] |  |  |  | anti-anxiety effect in the open field experiment ([4]; mouse, in vivo): very significant anti-anxiety effect
22 | CNCCC(Oc1ccc(C(F)(F)F)cc1)c1ccccc1 (stereo not drawn) [Fluoxetine, reference compound] |  |  |  | non-movement time (%) Mean ± SEM [1]: 33.98 ± 9.84 %
23 | COc1ccccc1Oc1ccc(N(Cc2cccnc2)S(=O)(=O)CC(F)(F)F)cc1 [LY487379, reference compound] |  |  | 6.64 | 
